Laboratory results reported in ChEMBL document CHEMBL4507262, “Data for DCP probe A-1596586” (2021).

Experiments:
[1] = target: Aurora kinase C (Homo sapiens) (UniProt Q9UQB9); settings: Compound concentration 1000.0 nM
[2] = target: Tyrosine-protein kinase receptor Tie-1 (Homo sapiens) (UniProt P35590); settings: Compound concentration 1000.0 nM
[3] = target: GABA-A receptor; anion channel (Rattus norvegicus) (UniProt O09028+P15431+P18506+P18508+P19969+P20236+P23574+P23576+P28471+P28473+P30191+P62813+P63079+P63138+Q91ZM7+Q9ES14); test: Cl- channel (GABA-gated) Eurofins-Cerep binding assay; type: protein-complex assay; set-up: ligand concentration 3 nM; settings: filed as antagonist, Compound concentration 10.0 uM
[4] = target: Serine/threonine-protein kinase MRCK alpha (Homo sapiens) (UniProt Q5VT25); settings: Compound concentration 1000.0 nM
[5] = target: Phosphatidylinositol 3-kinase C2 domain-containing subunit gamma (Homo sapiens) (UniProt O75747); settings: Compound concentration 1000.0 nM
[6] = target: Homeodomain-interacting protein kinase 2 (Homo sapiens) (UniProt Q9H2X6); settings: Compound concentration 1000.0 nM
[7] = target: Mitogen-activated protein kinase 1 (Homo sapiens) (UniProt P28482); settings: Compound concentration 1000.0 nM
[8] = target: Bone morphogenetic protein receptor type-1B (Homo sapiens) (UniProt O00238); settings: Compound concentration 1000.0 nM
[9] = target: Mitogen-activated protein kinase kinase kinase 20 (Homo sapiens) (UniProt Q9NYL2); settings: Compound concentration 1000.0 nM
[10] = target: MAP/microtubule affinity-regulating kinase 3 (Homo sapiens) (UniProt P27448); settings: Compound concentration 1000.0 nM
[11] = target: MAP kinase-interacting serine/threonine-protein kinase 1 (Homo sapiens) (UniProt Q9BUB5); settings: Compound concentration 1000.0 nM
[12] = target: Vascular endothelial growth factor receptor 1 (Homo sapiens) (UniProt P17948); settings: Compound concentration 1000.0 nM
[13] = target: Non-receptor tyrosine-protein kinase TYK2 (Homo sapiens) (UniProt P29597); settings: Compound concentration 1000.0 nM
[14] = target: Serine/threonine-protein kinase TNNI3K (Homo sapiens) (UniProt Q59H18); settings: Compound concentration 1000.0 nM
[15] = target: Motilin receptor (Homo sapiens) (UniProt O43193); test: motilin (h Eurofins-Cerep binding assay; set-up: ligand concentration 0.05 nM; settings: filed as agonist, Compound concentration 10.0 uM
[16] = target: 3-phosphoinositide-dependent protein kinase 1 (Homo sapiens) (UniProt O15530); settings: Compound concentration 1000.0 nM
[17] = tested on: Mast/stem cell growth factor receptor Kit (Homo sapiens), P10721 [V559D]; settings: Compound concentration 1000.0 nM
[18] = target: Phosphatidylinositol 3-kinase catalytic subunit type 3 (Homo sapiens) (UniProt Q8NEB9); settings: Compound concentration 1000.0 nM
[19] = target: T1, Alpha-2A adrenergic receptor (Homo sapiens) (UniProt P08913); settings: Compound concentration 10.0 uM
T1 sequence (whole entry): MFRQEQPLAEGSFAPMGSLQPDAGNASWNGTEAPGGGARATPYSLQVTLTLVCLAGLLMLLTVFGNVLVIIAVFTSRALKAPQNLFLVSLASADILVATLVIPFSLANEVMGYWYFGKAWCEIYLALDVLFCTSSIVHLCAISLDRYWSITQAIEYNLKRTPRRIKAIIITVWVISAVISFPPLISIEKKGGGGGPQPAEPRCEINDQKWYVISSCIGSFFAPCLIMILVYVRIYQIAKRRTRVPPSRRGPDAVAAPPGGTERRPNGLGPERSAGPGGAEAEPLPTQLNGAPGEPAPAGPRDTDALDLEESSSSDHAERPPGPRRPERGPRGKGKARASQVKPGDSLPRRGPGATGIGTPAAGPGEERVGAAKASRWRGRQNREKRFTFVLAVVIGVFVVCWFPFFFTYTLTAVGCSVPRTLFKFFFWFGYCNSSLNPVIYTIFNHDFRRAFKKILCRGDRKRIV

[20] = target: Death-associated protein kinase 2 (Homo sapiens) (UniProt Q9UIK4); settings: Compound concentration 1000.0 nM
[21] = target: SRSF protein kinase 1 (Homo sapiens) (UniProt Q96SB4); settings: Compound concentration 1000.0 nM
[22] = tested on: Epidermal growth factor receptor (Homo sapiens), P00533 [L861Q]; settings: Compound concentration 1000.0 nM
[23] = target: Serine/threonine-protein kinase 26 (Homo sapiens) (UniProt Q9P289); settings: Compound concentration 1000.0 nM
[24] = target: 5-hydroxytryptamine receptor 7 (Homo sapiens) (UniProt P34969); test: 5-HT7 (h) Eurofins-Cerep binding assay; set-up: ligand concentration 4 nM; settings: filed as agonist, Compound concentration 10.0 uM
[25] = target: D(2) dopamine receptor (Homo sapiens) (UniProt P14416); test: D2S (h) Eurofins-Cerep binding assay; set-up: ligand concentration 0.3 nM; settings: filed as antagonist, Compound concentration 10.0 uM
[26] = target: Myosin-IIIa (Homo sapiens) (UniProt Q8NEV4); settings: Compound concentration 1000.0 nM
[27] = target: D(1A) dopamine receptor (Homo sapiens) (UniProt P21728); test: D1 (h) Eurofins-Cerep binding assay; set-up: ligand concentration 0.3 nM; settings: filed as antagonist, Compound concentration 10.0 uM
[28] = target: Serine/threonine-protein kinase 25 (Homo sapiens) (UniProt O00506); settings: Compound concentration 1000.0 nM
[29] = target: Cyclin-dependent kinase 16 (Homo sapiens) (UniProt Q00536); settings: Compound concentration 1000.0 nM
[30] = target: Serine/threonine-protein kinase PLK2 (Homo sapiens) (UniProt Q9NYY3); settings: Compound concentration 1000.0 nM
[31] = target: Cyclin-dependent kinase 4 (Homo sapiens) (UniProt P11802); settings: Compound concentration 1000.0 nM
[32] = tested on: Tyrosine-protein kinase ABL1 (Homo sapiens), P00519 [F317I]; settings: Compound concentration 1000.0 nM
[33] = target: Muscarinic acetylcholine receptor M3 (Homo sapiens) (UniProt P20309); settings: Compound concentration 10.0 uM
[34] = target: Serine/threonine-protein kinase NLK (Homo sapiens) (UniProt Q9UBE8); settings: Compound concentration 1000.0 nM
[35] = target: Calcitonin-gene-related peptide receptor, CALCRL/RAMP1 (Homo sapiens) (UniProt O60894+Q16602); test: CGRP (h) Eurofins-Cerep binding assay; type: protein-complex assay; set-up: ligand concentration 0.03 nM; settings: filed as agonist, Compound concentration 10.0 uM
[36] = target: Serine/threonine-protein kinase ICK (Homo sapiens) (UniProt Q9UPZ9); settings: Compound concentration 1000.0 nM
[37] = target: Activin receptor type-2A (Homo sapiens) (UniProt P27037); settings: Compound concentration 1000.0 nM

Chain of 5-hydroxytryptamine receptor 7 (Homo sapiens) (P34969 whole entry): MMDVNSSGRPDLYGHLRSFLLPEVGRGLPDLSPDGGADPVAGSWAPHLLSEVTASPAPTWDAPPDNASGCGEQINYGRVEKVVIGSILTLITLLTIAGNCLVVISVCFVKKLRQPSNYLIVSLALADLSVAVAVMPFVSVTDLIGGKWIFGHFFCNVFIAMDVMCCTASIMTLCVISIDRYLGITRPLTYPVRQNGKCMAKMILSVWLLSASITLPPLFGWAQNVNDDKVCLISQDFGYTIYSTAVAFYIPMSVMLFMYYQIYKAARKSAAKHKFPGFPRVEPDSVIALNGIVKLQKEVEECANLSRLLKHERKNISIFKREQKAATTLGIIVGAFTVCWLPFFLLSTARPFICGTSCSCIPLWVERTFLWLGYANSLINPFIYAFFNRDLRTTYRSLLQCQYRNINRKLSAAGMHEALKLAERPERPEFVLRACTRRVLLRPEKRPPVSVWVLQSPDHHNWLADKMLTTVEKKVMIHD
Chain of 3-phosphoinositide-dependent protein kinase 1 (Homo sapiens) (O15530 whole entry): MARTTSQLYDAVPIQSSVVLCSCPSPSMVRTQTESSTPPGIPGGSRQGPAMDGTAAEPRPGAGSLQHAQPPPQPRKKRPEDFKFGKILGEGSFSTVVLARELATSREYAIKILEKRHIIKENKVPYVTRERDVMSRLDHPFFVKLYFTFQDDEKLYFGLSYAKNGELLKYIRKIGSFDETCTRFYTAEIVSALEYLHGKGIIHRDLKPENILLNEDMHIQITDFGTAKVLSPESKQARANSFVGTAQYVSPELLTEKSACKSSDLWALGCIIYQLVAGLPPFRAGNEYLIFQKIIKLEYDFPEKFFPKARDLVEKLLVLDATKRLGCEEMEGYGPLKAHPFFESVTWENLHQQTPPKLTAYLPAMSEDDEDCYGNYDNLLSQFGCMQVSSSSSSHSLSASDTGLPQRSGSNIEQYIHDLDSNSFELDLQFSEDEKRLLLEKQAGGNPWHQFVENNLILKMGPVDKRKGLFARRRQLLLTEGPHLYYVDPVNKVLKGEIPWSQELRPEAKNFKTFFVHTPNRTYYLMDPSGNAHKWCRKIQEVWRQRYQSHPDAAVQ
Chain of Cyclin-dependent kinase 16 (Homo sapiens) (Q00536 whole entry): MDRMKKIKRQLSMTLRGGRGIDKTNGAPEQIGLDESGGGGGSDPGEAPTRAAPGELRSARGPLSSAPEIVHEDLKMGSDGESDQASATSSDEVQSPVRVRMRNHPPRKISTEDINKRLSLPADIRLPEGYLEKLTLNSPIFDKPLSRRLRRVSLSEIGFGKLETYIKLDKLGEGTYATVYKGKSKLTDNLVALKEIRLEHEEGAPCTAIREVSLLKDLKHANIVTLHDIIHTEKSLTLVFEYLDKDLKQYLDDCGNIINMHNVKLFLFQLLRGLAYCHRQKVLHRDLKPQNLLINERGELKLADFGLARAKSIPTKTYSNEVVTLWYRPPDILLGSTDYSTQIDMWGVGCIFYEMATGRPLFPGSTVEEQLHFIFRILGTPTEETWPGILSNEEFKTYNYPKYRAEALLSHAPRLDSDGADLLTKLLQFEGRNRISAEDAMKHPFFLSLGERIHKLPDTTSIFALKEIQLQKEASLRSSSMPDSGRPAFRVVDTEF
Chain of D(1A) dopamine receptor (Homo sapiens) (P21728 whole entry): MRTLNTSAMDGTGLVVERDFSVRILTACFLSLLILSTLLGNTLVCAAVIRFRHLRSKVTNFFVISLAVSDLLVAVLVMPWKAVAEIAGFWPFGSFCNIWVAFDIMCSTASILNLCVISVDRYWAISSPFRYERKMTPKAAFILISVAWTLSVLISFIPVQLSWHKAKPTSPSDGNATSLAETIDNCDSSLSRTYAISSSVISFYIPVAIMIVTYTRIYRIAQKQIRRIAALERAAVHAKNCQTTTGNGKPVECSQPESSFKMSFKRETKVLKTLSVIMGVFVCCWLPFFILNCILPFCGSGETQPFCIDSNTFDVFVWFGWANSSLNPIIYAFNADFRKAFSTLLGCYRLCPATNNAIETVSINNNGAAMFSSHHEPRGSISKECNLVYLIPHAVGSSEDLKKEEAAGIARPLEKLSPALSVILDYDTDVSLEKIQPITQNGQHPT
Chain of Serine/threonine-protein kinase TNNI3K (Homo sapiens) (Q59H18 whole entry): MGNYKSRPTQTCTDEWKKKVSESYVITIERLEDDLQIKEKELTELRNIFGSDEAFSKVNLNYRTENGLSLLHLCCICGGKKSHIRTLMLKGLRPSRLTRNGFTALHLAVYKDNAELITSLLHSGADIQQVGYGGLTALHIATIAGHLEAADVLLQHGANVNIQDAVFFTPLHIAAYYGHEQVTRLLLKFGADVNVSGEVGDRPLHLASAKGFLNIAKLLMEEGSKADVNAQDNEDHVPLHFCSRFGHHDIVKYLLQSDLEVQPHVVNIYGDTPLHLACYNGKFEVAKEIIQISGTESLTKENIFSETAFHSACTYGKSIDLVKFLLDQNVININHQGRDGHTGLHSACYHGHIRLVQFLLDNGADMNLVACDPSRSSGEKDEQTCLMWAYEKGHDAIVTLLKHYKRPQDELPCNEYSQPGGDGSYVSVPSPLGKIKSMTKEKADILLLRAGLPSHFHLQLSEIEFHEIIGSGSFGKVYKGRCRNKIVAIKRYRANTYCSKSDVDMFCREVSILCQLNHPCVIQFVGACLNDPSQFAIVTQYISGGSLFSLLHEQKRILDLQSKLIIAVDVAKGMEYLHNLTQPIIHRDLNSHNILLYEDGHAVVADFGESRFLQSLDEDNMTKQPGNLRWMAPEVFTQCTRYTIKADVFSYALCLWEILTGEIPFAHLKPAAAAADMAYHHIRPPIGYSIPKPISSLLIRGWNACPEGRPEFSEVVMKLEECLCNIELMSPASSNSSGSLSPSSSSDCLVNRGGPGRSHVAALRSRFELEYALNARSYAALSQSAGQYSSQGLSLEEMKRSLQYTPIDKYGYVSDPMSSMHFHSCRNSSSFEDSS
Chain of Muscarinic acetylcholine receptor M3 (Homo sapiens) (P20309 whole entry, looked up): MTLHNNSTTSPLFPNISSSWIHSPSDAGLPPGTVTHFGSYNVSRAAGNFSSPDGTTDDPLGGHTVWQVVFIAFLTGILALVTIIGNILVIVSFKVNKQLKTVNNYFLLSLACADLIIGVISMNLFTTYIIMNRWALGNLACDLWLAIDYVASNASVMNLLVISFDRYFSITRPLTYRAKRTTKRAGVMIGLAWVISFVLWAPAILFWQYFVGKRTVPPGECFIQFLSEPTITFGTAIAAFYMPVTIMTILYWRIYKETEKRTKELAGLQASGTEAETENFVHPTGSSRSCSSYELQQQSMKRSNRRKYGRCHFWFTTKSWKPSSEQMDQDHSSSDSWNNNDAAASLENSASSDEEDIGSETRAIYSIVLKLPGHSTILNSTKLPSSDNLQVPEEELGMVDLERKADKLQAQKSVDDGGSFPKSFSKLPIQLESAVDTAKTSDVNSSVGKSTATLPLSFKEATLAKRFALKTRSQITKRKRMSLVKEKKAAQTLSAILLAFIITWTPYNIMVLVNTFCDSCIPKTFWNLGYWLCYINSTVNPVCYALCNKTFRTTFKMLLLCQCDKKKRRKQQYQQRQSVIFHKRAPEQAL
Chain of Homeodomain-interacting protein kinase 2 (Homo sapiens) (Q9H2X6 whole entry, looked up): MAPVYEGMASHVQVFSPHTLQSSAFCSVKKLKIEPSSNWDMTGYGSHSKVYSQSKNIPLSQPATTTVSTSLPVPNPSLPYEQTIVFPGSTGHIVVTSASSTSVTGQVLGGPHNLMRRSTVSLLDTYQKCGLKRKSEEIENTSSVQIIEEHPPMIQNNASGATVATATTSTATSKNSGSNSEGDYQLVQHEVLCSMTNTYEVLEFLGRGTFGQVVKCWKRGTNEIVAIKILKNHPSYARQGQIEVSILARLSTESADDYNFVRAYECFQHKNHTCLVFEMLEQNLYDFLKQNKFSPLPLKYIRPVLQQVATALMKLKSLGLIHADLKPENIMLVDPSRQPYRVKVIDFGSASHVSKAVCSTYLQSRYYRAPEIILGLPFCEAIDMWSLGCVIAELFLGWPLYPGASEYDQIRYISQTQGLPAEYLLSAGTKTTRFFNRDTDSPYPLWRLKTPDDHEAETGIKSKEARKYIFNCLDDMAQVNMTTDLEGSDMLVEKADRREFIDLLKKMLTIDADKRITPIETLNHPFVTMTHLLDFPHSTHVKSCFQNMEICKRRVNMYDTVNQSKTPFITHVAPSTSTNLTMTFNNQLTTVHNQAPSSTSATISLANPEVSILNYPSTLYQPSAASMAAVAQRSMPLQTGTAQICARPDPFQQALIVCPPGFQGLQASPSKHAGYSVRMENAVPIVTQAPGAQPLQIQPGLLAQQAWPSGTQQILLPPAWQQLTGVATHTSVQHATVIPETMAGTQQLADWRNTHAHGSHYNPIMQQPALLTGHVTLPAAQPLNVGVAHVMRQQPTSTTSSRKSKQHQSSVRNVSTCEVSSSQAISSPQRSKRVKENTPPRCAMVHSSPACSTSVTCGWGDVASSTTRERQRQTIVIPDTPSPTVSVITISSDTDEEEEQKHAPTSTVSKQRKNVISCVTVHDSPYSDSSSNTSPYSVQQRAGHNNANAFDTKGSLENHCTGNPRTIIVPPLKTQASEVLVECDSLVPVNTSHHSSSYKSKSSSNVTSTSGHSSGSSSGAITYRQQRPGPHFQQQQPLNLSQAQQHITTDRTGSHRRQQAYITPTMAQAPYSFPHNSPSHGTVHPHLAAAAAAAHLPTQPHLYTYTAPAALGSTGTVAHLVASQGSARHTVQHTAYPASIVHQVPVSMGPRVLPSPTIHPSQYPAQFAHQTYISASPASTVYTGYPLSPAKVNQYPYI
Chain of Death-associated protein kinase 2 (Homo sapiens) (Q9UIK4 whole entry, looked up): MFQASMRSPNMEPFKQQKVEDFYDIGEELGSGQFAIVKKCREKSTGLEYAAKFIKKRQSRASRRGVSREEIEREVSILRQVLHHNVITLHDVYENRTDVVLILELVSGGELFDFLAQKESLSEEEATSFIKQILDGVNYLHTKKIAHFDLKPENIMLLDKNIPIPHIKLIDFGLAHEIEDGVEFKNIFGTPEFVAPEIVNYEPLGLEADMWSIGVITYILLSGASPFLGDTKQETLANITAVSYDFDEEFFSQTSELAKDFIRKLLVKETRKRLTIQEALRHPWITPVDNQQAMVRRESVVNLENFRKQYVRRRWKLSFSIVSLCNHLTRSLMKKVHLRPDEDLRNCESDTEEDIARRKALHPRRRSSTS

| Structure (SMILES) | residual activity [1] | residual activity [2] | % Inhibition of Control Specific Binding (Mean n=2) [3] | residual activity [4] | residual activity [5] | residual activity [6] | residual activity [7] | residual activity [8] | residual activity [9] | residual activity [10] | residual activity [11] | residual activity [12] | residual activity [13] | residual activity [14] | % Inhibition of Control Specific Binding (Mean n=2) [15] | residual activity [16] | residual activity [17] | residual activity [18] | inhibition [19] | residual activity [20] | also measured |
| --- | --- | --- | --- | --- | --- | --- | --- | --- | --- | --- | --- | --- | --- | --- | --- | --- | --- | --- | --- | --- | --- |
| COc1ccc2c(c1)O[C@@H](c1ccc(OC)c(OC)c1)C[C@H]2NC(=O)C1(c2ccc3c(c2)OC(F)(F)O3)CC1 [A-1596586] | 100% | 100% | 57.7% | 90% | 83% | 96% | 100% | 71% | 97% | 100% | 78% | 100% | 91% | 100% | 10.7% | 100% | 86% | 78% | 17.6% | 98% | residual activity [21]: 95%; residual activity [22]: 100%; residual activity [23]: 75%; % Inhibition of Control Specific Binding (Mean n=2) [24]: -6.3%; % Inhibition of Control Specific Binding (Mean n=2) [25]: 27.7%; residual activity [26]: 93%; % Inhibition of Control Specific Binding (Mean n=2) [27]: 14%; residual activity [28]: 100%; residual activity [29]: 88%; residual activity [30]: 81%; residual activity [31]: 100%; residual activity [32]: 93%; inhibition [33]: 1.13%; residual activity [34]: 100%; % Inhibition of Control Specific Binding (Mean n=2) [35]: -7%; residual activity [36]: 74%; residual activity [37]: 90% |
| COc1ccc2c(c1)O[C@H](c1ccc(OC)c(OC)c1)C[C@@H]2NC(=O)C1(c2ccc3c(c2)OC(F)(F)O3)CC1 [A-1596584] | 100% | 100% | 82.4% | 100% | 61% | 98% | 99% | 100% | 97% | 95% | 81% | 100% | 100% | 100% | 26.4% | 100% | 100% | 88% | 14.9% | 98% | residual activity [21]: 100%; residual activity [22]: 100%; residual activity [23]: 84%; % Inhibition of Control Specific Binding (Mean n=2) [24]: -6.4%; % Inhibition of Control Specific Binding (Mean n=2) [25]: 18.7%; residual activity [26]: 100%; % Inhibition of Control Specific Binding (Mean n=2) [27]: 7.4%; residual activity [28]: 100%; residual activity [29]: 100%; residual activity [30]: 100%; residual activity [31]: 100%; residual activity [32]: 100%; inhibition [33]: 2.35%; residual activity [34]: 100%; % Inhibition of Control Specific Binding (Mean n=2) [35]: -2.5%; residual activity [36]: 80%; residual activity [37]: 97% |
